For test [1], the target named is T1, 5-HT1A (Homo sapiens, UniProt P08908).
T1 construct: expressed in transfected cells; host or cells: CHO or HEK293
T1 sequence (P08908 1-422): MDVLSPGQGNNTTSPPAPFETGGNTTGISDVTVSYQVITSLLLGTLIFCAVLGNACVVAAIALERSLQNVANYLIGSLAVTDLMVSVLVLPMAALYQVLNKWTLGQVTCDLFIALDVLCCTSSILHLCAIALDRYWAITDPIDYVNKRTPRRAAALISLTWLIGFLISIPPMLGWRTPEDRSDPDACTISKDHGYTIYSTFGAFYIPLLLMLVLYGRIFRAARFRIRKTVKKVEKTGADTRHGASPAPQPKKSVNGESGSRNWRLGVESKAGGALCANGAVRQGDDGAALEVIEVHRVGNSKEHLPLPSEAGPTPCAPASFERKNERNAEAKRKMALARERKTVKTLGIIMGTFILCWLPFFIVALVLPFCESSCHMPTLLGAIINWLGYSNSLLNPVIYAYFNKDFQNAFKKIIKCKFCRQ
Nature of the test: Radioligand displacement binding (3H-8-OH-DPAT), SPA or filter binding. Conditions: recombinant human receptor. As to the method: (§1) The affinity constants of compounds were determined using recombinant human serotonin receptors stably expressed in fibroblast cell lines (CHO or HEK293), measuring the ability of the compounds to displace radio-labelled tracers using scintillation proximity assays or filter binding assays. For 5-HT1B , 5-HT2B and 5-HT2C receptor binding studies ^3H-LSD was used as radio ligand, for 5-HT2 A and 5-HT6 ^3H-5-HT was used as tracer, while the binding constant to 5-HT1A was determined using ^3H-8-OH-DPAT. The non-selective serotonin receptor antagonist mianserine was used as reference substance.
(§2) The calculation of the Ki values for the inhibitors was performed by use of Activity Base. The Ki value is calculated from IC50 using the Cheng Prushoff equation (with reversible inhibition that follows the Michaelis-Menten equation): […] [Cheng, Y. C.; Prushoff, W. H. Biochem. Pharmacol. 1973, 22, 3099-3108].

For test [2], the target named is T2, 5-HT1B (Homo sapiens, UniProt P28222).
T2 construct: expressed in transfected cells; host or cells: CHO or HEK293
T2 sequence (P28222 whole entry): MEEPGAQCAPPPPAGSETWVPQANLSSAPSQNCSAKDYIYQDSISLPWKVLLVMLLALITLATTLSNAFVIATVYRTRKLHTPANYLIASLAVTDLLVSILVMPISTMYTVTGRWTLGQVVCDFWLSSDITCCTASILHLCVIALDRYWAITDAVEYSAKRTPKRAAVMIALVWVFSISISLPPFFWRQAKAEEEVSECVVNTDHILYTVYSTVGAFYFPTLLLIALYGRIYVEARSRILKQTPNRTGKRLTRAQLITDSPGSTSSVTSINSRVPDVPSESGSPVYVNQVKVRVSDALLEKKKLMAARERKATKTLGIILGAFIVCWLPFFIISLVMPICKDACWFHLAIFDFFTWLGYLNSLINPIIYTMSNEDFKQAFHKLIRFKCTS
Nature of the test: Radioligand displacement binding (3H-LSD), SPA or filter binding. Conditions: recombinant human receptor. Here is the method: as §1, §2

Test [3] addresses T3, 5-HT2B (Homo sapiens, UniProt P41595).
T3 construct: expressed in transfected cells; host or cells: CHO or HEK293
Described as above. Conditions: recombinant human receptor. Here is the method:
as §1, §2

The target in test [4] is T4, 5-HT6 (Homo sapiens, UniProt P50406).
T4 construct: expressed in transfected cells; host or cells: CHO or HEK293
T4 sequence (P50406 whole entry): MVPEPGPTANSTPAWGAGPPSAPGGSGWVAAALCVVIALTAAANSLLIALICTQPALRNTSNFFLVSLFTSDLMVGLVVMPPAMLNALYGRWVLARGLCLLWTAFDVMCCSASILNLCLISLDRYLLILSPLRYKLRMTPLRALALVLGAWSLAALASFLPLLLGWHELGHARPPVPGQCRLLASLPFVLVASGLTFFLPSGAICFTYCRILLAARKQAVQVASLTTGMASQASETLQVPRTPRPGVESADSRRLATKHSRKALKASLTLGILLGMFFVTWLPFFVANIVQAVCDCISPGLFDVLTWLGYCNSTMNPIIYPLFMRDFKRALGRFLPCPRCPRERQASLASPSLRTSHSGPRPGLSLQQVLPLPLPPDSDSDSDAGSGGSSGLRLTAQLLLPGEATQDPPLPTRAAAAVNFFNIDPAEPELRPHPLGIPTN
Nature of the test: Radioligand displacement binding (3H-5-HT), SPA or filter binding. Particulars: recombinant human receptor. As to the method:
as §1, §2

Test [5] addresses T5, 5-HT2C (Homo sapiens, UniProt P28335).
T5 sequence (P28335 33-458): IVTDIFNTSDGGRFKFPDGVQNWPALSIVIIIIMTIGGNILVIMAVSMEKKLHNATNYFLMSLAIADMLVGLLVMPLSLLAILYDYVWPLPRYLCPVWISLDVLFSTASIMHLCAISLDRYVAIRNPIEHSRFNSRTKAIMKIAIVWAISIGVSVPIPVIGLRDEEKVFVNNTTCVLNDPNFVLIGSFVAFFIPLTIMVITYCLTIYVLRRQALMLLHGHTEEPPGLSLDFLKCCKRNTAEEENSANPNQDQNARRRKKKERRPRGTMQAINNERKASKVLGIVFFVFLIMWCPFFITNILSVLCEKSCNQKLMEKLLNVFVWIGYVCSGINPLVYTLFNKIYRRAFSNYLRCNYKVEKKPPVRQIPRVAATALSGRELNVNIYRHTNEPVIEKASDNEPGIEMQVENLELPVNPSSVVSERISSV
Nature of the test: FLIPR based assay, effect on 10 nM 5-HT induced Ca2+-currents. It is filed as cell-based. Conditions: functional FLIPR assays. As to the method:
The activity at 5-HT2C receptors was studied in a FLIPR based assay, measuring the effect of compounds on 10 nM 5-HT induced Ca^2+-currents.

In test [6] the target is T6, 5-HT2A (Homo sapiens, UniProt P28223). Nature of the test: FLIPR functional assay (primary screening and IC50 determination), inhibition of 5-HT evoked peak response. The class given is cell-based. Further details: expressed in transfected cells; host or cells: CHO. Conditions: CHO cells expressing 5-HT2A, 15 min pre-incubation, Ki calculated from IC50 (Cheng Prushoff). Here is the method: Primary screening and IC50 determination
T6 sequence (P28223 whole entry): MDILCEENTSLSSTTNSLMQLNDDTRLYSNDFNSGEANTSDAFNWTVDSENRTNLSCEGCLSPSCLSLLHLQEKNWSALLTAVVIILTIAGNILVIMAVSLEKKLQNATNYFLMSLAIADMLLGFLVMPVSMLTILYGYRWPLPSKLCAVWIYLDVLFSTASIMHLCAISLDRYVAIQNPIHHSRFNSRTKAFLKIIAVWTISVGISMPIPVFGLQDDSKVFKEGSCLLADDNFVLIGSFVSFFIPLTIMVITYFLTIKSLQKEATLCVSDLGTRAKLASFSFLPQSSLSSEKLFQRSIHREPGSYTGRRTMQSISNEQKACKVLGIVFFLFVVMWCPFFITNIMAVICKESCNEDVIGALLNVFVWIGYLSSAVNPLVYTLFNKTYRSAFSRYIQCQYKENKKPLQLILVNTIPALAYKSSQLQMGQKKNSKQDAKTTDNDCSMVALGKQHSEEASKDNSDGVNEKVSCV
CHO cells expressing 5-HT2A receptors seeded in 384 well plates are pre-loaded with Fluo-4AM fluorescent dye and then incubated with compound (10 μM for primary screen) for 15 min. Fluorescent intensity is recorded using a Fluorometric imaging plate reader (FLIPR384, Molecular Devices) and inhibition of the peak response evoked by 5-HT (EC70 concentration) is calculated.
IC50 determinations are performed utilizing the same finctional assay as described for primary screening (15 min antagonist compound pre-incubation), applying the compounds in the dose range of 3 nM to 10 μM.
as §2

Test [7] deals with T5, 5-HT2C. Nature of the test: Radioligand displacement binding (3H-LSD), SPA or filter binding. Further details: expressed in transfected cells; host or cells: CHO or HEK293. Particulars: recombinant human receptor. Here is the method: as §1, §2
Test [8] concerns the target T6, 5-HT2A. Nature of the test: Radioligand displacement binding (3H-5-HT), SPA or filter binding. On the set-up: expressed in transfected cells; host or cells: CHO or HEK293. As to the method: as §1, §2
Where [9] appears, read: equilibrium displacement binding, n=3, unit inferred, read-out: Ki values for the 5-HT2A receptor subtype.
The mark [10] stands for this setting: recombinant human receptor, 3H-5-HT, read-out: Binding Ki (nM) 5-HT2A.

T3 sequence (P41595 whole entry): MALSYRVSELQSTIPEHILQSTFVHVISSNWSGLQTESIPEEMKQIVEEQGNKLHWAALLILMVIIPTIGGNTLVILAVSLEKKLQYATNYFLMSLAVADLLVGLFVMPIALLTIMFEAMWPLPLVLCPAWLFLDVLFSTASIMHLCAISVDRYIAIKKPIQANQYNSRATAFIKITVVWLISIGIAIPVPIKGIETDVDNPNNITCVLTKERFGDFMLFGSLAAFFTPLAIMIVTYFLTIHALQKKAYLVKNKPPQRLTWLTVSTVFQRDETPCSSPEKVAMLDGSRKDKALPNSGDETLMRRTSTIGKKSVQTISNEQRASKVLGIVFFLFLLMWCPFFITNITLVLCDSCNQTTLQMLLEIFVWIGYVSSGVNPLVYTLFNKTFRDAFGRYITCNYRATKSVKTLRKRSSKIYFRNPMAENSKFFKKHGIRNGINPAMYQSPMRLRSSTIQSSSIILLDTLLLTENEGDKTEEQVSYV

In the case of `c1ccc(CCN2CCC(c3nc(-c4ccccc4)c4ccccn34)CC2)cc1` [Example 2], the inhibitory constant (Ki) in test [1] is more than 1000 nM; in test [2] it was more than 1000 nM; in test [3] it was 444 nM; in test [4], more than 1000 nM; in test [6], 20.6 nM; in test [7], more than 1000 nM. Also, the inhibition constant (Ki) in test [8] (setting [9]) was found to be 6 nM; in test [8] (setting [10]), 5.9 nM. Moreover, the “selectivity at 5-HT2A versus the 5-HT2C receptor in terms of efficacy” value in test [5] is on record as “highly selective”.
With `Cc1ccn2c(C3CCN(CCc4ccccc4)CC3)nc(-c3ccccc3)c2c1` [Example 4, 7-methyl-1-phenyl-3-[1-(2-phenylethyl)piperidin-4-yl]imidazo[1,5-a]pyridine], the Ki was more than 1000 nM in test [1]; more than 1000 nM in test [2]; 267 nM in test [3]; more than 1000 nM in test [4]; 8.2 nM in test [6]; more than 1000 nM in test [7]. Further, the inhibitory constant (Ki) is 14 nM in test [8] (setting [9]) and 13.6 nM in test [8] (setting [10]). For the same compound, the “selectivity at 5-HT2A versus the 5-HT2C receptor in terms of efficacy” value in test [5] is given as “highly selective”.
